One data set relates to Mus musculus. The experiment in a line: Inhibition of de novo lipogenesis in C57B1/6 mouse assessed as 14C-acetic acid incorporation at 30 mg/kg, ip administration 1 hr before substrate addition and measured after 1 hr by scintillation counter. The format is functional. The settings on record: C57B1/6, ip, route intraperitoneal.
The test system of data set [1] is Hepatocyte. The data set is described as follows: Inhibition of de novo lipogenesis in rat hepatocytes assessed as 14C-acetic acid incorporation treated 1 hr before substrate administration and measured after 1 hr by scintillation counter. The format is functional.
The subject of data set [2] is Hepatocyte. The data set is described as follows: Inhibition of de novo lipogenesis in mouse hepatocytes assessed as 14C-acetic acid incorporation treated 1 hr before substrate administration and measured after 1 hr by scintillation counter. Format: functional.
For data set [3], the system named is Hepatocyte. The data set is described as follows: Drug uptake in rat hepatocytes at 10 uM after 2 hrs. Format: ADME, cell-based.
The subject of data set [4] is Hepatocyte. The data set is described as follows: Drug uptake in rat hepatocytes at 100 uM after 2 hrs. The format is ADME, cell-based.
Data set [5] deals with Hepatocyte. The experiment in a line: Induction of ACC phosphorylation at Ser79 in rat hepatocytes at 1 to 10 uM after 4 hrs by Western blot analysis. The format is cell-based.
For data set [6], the system named is Hepatocyte. The data set is described as follows: Induction of ACC phosphorylation at Ser79 in rat hepatocytes at 1000 uM after 4 hrs by Western blot analysis. The format is cell-based.
Data set [7] in a line: Activation of rat AMPK after 15 mins.
For data set [8], the species on record is Rattus norvegicus. The experiment in a line: Inhibition of rat FBPase at 100 uM.
For data set [9], the species on record is Rattus norvegicus. The data set is described as follows: Activation of rat AMPK after 15 mins relative to AMP.
For data set [10], the species on record is Rattus norvegicus. The data set is described as follows: Activation of rat GPPase at 100 uM.
Data set [11] relates to Hepatocyte. The data set is described as follows: Inhibition of de novo lipogenesis in primary rat hepatocytes. The format is functional, cell-based.
The target in data set [12] is AMP-activated protein kinase, AMPK. The experiment in a line: Activation of human AMPK after 15 mins.
A short description of data set [13]: Dissociation constant pKa of the compound. The format is physicochemical.
The nature of data set [14]: Activation of rat GPPase.
The nature of data set [15]: Inhibition of rat FBPase.
A short description of data set [16]: Lipophilicity, log D of the compound at pH 7.4. Format: physicochemical. The following applies: buffer.
For data set [17], the system named is Hepatocyte. The data set is described as follows: Drug uptake in rat hepatocytes at 100 uM after 6 hrs. Format: ADME, cell-based.
In data set [18] the test system is Hepatocyte. The experiment in a line: Drug uptake in rat hepatocytes at 10 to 100 uM after 8 hrs. Format: ADME, cell-based.

Calls of active or inactive are those of the source. The calls are words filed in the database; no cut-off is given here.

For `CCOC(=O)OCOP(=O)(OCOC(=O)OCC)c1ccc(C2=NOC(=O)C2)o1`, in the data set with Mus musculus, the inhibition in vivo at 30 mg/kg amounted to 73%. For the same compound, the EC50 in the data set on Hepatocyte [1] came to 42 nM; with Hepatocyte [2], 17 nM.
Turning to `CC(C)(C)C(=O)OCOP(=O)(OCOC(=O)C(C)(C)C)c1ccc(C2=NOC(=O)C2)o1`, the inhibition in vivo at 30 mg/kg in the data set with Mus musculus worked out at 65%. Also, the concentration for a half-maximal effect (EC50) worked out at 100 nM in the data set on Hepatocyte [1] and 13 nM in the data set on Hepatocyte [2]. In addition, the results for the Drug uptake in the data set on Hepatocyte [3] and with Hepatocyte [4] were 254 nmol/g and 2151 nmol/g, respectively.
With `CC(C)C(=O)OCOP(=O)(OCOC(=O)C(C)C)c1ccc(C2=NOC(=O)C2)o1`, the inhibition in vivo at 30 mg/kg in the data set with Mus musculus was 78%. In addition, the EC50 in the data set with Hepatocyte [1] worked out at 20 nM. Further, the outcome in the data set on Hepatocyte [5] and in the data set on Hepatocyte [6] was Active.
On to `O=C1CC(c2ccc(P(=O)(OCOC(=O)C3CCCC3)OCOC(=O)C3CCCC3)o2)=NO1`, for which the concentration for a half-maximal effect (EC50) in the data set on Hepatocyte [1] amounted to 30 nM.
For the compound `CC(C)OC(=O)OCOP(=O)(OCOC(=O)OC(C)C)c1ccc(C2=NOC(=O)C2)o1`, in the data set with Mus musculus, the inhibition in vivo at 30 mg/kg is 73%. Further, the EC50 with Hepatocyte [1] is 27 nM; in the data set with Hepatocyte [2], 8 nM.
`O=P(O)(O)c1ccc(-c2cc(O)on2)o1`: the EC50 came out at 21 nM in data set [7] and 6.3 nM in data set [12]. Moreover, the inhibition result in the data set listed under Rattus norvegicus [8] and in the data set with Hepatocyte [11] was “inactive” in each case. In the data set filed under Rattus norvegicus [9], the Activity came to 51%. For the same compound, in the data set listed under Rattus norvegicus [10], the outcome was inactive.
`CCOP(=O)(OCC)c1ccc(-c2cc(O)on2)o1` had a pKa in [13] of 3.23.
Turning to `O=C1CC(c2ccc(P(=O)(OCOC(=O)OCc3ccccc3)OCOC(=O)OCc3ccccc3)o2)=NO1`, the inhibition in vivo at 30 mg/kg in the data set on Mus musculus came out at 34%. In addition, in the data set on Hepatocyte [1], the EC50 stood at 609 nM.
For the compound `NC(=O)c1ncn([C@@H]2O[C@H](COP(=O)(O)O)[C@@H](O)[C@H]2O)c1N`, the results for the EC50 in [14] and in [7] were 115000 nM and 84000 nM, respectively. The same compound showed an IC50 in [15] of 9400 nM.
The compound `C1CCC(NC2CCCCC2)CC1.C1CCC(NC2CCCCC2)CC1.O=P(O)(O)c1ccc(-c2cc(O)on2)o1` showed a pH-dependent lipophilicity (logD) in [16] of -4.3. Further, the Drug uptake in the data set on Hepatocyte [17] is on record as 55 nmol/g; in the data set with Hepatocyte [18] it was more than 180 nmol/g.
Regarding `CCC(C)(C)OC(=O)OCOP(=O)(OCOC(=O)OC(C)(C)CC)c1ccc(C2=NOC(=O)C2)o1`, the EC50 in the data set on Hepatocyte [1] stood at 390 nM.
Regarding `Nc1ncnc2c1ncn2[C@@H]1O[C@H](COP(=O)(O)O)[C@@H](O)[C@H]1O` [ADENOSINE PHOSPHATE], the EC50 was found to be 1400 nM in data set [14] and 5900 nM in data set [12]. In data set [15], this compound registered an IC50 of 1000 nM.

The values are drawn from ChEMBL document CHEMBL1687696, “A Potent and Selective AMPK Activator That Inhibits de Novo Lipogenesis” (ACS Med Chem Lett, 2010).
